Measured values: BindingDB's records for doi:10.1021/jm00055a007 (Abbott Laboratories, 1993)

Target: Gonadotropin-releasing hormone receptor (Rattus norvegicus) (UniProt P30969)
Sequence (P30969 whole entry, looked up): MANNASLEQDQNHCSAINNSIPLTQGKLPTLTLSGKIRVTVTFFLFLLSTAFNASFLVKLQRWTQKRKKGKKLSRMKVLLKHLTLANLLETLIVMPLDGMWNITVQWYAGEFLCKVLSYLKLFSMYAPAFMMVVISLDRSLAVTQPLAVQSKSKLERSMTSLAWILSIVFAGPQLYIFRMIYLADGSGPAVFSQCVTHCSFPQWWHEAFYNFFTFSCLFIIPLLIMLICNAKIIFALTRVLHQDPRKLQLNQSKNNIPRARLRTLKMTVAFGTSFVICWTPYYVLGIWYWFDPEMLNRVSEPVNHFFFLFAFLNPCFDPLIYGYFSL

Ki	SMILES
0.74 nM	CC(C)C[C@H](NC(=O)[C@@H](Cc1ccc2ccccc2c1)NC(=O)[C@H](Cc1ccc(O)cc1)NC(=O)[C@H](CO)NC(=O)[C@H](Cc1cccc2ccccc12)N(C)C(=O)[C@H](Cc1cnc[nH]1)NC(=O)[C@@H]1CCC(=O)N1)C(=O)N[C@@H](CCCN=C(N)N)C(=O)N1CCC[C@H]1C(=O)NCC(N)=O [nafarelin 3NMe1Nal]
2.69 nM	CC(C)C[C@H](NC(=O)[C@@H](Cc1ccc2ccccc2c1)N(C)C(=O)[C@H](Cc1ccc(O)cc1)NC(=O)[C@H](CO)NC(=O)[C@H](Cc1c[nH]c2ccccc12)NC(=O)[C@H](Cc1c[nH]cn1)NC(=O)[C@@H]1CCC(=O)N1)C(=O)N[C@@H](CCCN=C(N)N)C(=O)N1CCC[C@H]1C(=O)NCC(N)=O [nafarelin 6NMe2Nal]
0.07 nM	CC(C)C[C@H](NC(=O)[C@@H](Cc1ccc2ccccc2c1)NC(=O)[C@H](Cc1ccc(O)cc1)NC(=O)[C@H](CO)NC(=O)[C@H](Cc1c[nH]c2ccccc12)NC(=O)[C@H](Cc1ccccc1)NC(=O)[C@@H]1CCC(=O)N1)C(=O)N[C@@H](CCCN=C(N)N)C(=O)N1CCC[C@H]1C(=O)NCC(N)=O [nafarelin 2Phe]
